US8748370B2, “Peptide derivatives for treatment, prevention or alleviation of a condition associated with bone loss or low bone density or to inhibit osteoclast differentiation and stimulation” (Strongbone AB, priority 2009, dated 2014)
Square brackets hold non-standard residues; d marks the D form. Peptide text beside a SMILES is read from it. * marks the point of attachment. Agmatine = N=C(N)NCCCCN*; Cbz = O=C(OCc1ccccc1)*; azaGly = NNC(=O)O; BrAc = O=C(CBr)*; ClAc = O=C(CCl)*

Columns and labels:
Papain = molecular target: T1, Papain (Carica papaya, UniProt P00784); assay: Papain inhibition (Ki); type: biochemical
T1 sequence (P00784 134-345): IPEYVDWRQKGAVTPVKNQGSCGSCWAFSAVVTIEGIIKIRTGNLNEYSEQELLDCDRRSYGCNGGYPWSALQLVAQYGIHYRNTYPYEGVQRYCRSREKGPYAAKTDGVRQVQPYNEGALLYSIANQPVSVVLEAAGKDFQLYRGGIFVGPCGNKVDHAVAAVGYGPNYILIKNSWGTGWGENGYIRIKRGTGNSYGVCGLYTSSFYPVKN

Cath K = molecular target: T2, Cath K (Homo sapiens, UniProt P43235); assay: Cathepsin K inhibition (Ki); type: biochemical
T2 sequence (P43235 115-329): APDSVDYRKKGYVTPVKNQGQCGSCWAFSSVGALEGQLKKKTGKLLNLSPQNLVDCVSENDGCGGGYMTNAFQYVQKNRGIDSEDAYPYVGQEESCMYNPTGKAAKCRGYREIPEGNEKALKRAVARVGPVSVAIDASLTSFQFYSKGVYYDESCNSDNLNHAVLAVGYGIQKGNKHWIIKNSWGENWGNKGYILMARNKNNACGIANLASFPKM

Cath B = Cath B (Homo sapiens, UniProt P07858); assay: Cathepsin B inhibition (Ki); type: biochemical
[1] = tested on: purified bone marrow macrophages; assay: Osteoclast formation in bone marrow macrophage cultures stimulated with M-CSF and RANKL (TRAP+ multinucleated osteoclasts); type: cell-based; conditions: for Osteoclast formation (100% = M-CSF + RANKL): purified bone marrow macrophages stimulated with M-CSF and RANKL, trap+ multinucleated osteoclasts
Experimental: Highly purified BMMs were isolated according to Takeshita et al. (2000).
For osteoclastogenesis experiments, BMMs were seeded either on 0.8 cm^2 glass chamber slides or 0.32 cm^2 96-well plates at a density of 10^4 cells/cm^2 in a-MEM/10% FBS containing either 100 ng/ml M-CSF (controls) or 100 ng/ml M-CSF C50 ng/ml RANKL, with and without test compounds. After 4-5 days, with a change of medium after 3 days, the cultures were harvested and the cells fixed with acetone in citrate buffer/3% formaldehyde and subsequently stained for TRAP. The TRAP-positive cells with three or more nuclei were considered osteoclasts, and the number of multinucleated osteoclasts was counted (TRAP^+-MuOCL). […] Osteoclast formation caused by M-CSF and RANKL was abolished by OPG

spleen cells = assay: Osteoclast formation in spleen cell cultures (TRAP+ multinucleated osteoclasts); type: cell-based, mice; conditions: for Osteoclast formation in the presence of the substance: without M-CSF/RANKL stimulation
Experimental: Cells were obtained from spleens of 5- to 9-week-old mice. The spleens were dissected free of adhering tissues, and cells were released by rubbing the spleens against the bottom of a Petri dish, in which grooves had been made by a scalpel. Erythrocytes were lysed in red blood cell lysis buffer (0.16 MNH4Cl, 0.17 M Tris, pH7.65) and the remaining cells were seeded, at a cell density of 10^6 cells/cm2, on plastic coverslips placed in 24-well plates. The cells were cultured in 0.5 ml a-minimal essential medium (a-MEM) supplemented with 10% fetal bovine serum (FBS), L-glutamine (0.7 mM), 100 U/ml benzylpenicillin, […] and 100 […] sulphate. Cells were allowed to settle overnight in complete medium and thereafter the medium was changed and the experiment started. Osteoclast precursor cells were induced to proliferate and differentiate by the addition of M-CSF (25 ng/ml) and RANKL (100 ng/ml). To study the effect of the compounds on osteoclastogenesis, cells were grown in medium containing compounds at different concentrations, together with M-CSF and RANKL. Cells cultured in complete medium without M-CSF and RANKL were included in all experiments as a control. Medium was changed after 3 days. After 1-6 days, the cells were washed three times with PBS (pH 7.35) and fixed with acetone in citrate buffer/3% formaldehyde solution. Cells were then stained for tartrate-resistant acid phosphatase (TRAP) activity using the SigmaDiagnostics Acid Phosphatase Leukocyte staining kit and by following the manufacturer's instruction. Multinucleated (no. of nuclei >3), TRAP-positive cells were counted as osteoclasts (TRAPC-MuOCL).

CC(C)CC(NC(=O)C(NC(=O)C1OC1C(=O)c1ccccc1)C(C)C)C(=O)NCCCCNC(=N)N (single isomer, unassigned) [A-47]
Ki (Papain): 16 nM | Ki (Cath K): 99 nM | Ki (Cath B): 0.3 nM | Osteoclast formation (100% = M-CSF + RANKL) ([1]; BMM #27 + #29 + #30 + #34): 0%

CC(C)CC(NC(=O)C(NC(=O)C1OC1C(=O)c1ccccc1)C(C)C)C(=O)NCCCCNC(=N)N (single isomer, unassigned) [A-50]
Ki (Papain): 68 nM | Ki (Cath K): 63 nM | Ki (Cath B): 55 nM | Osteoclast formation (100% = M-CSF + RANKL) ([1]; BMM #27 + #29 + #30 + #34): 2%

CC(C)CC(NC(=O)C(NC(=O)CCl)C(C)C)C(=O)NCCCCNC(=N)N (stereo not drawn) [A-11, ClAc—Val-Leu-Agm] (ClAc-Val-Leu-Agmatine; configuration not given here)
Ki (Papain): 93 nM | Ki (Cath K): 14 nM | Ki (Cath B): 360 nM | Osteoclast formation (100% = M-CSF + RANKL) ([1]; BMM #27 + #29 + #30 + #34): 1%

CC(C)CC(NC(=O)C(NC(=O)CBr)C(C)C)C(=O)NCCCCNC(=N)N (stereo not drawn) [A-12, BrAc—Val-Leu-Agm] (BrAc-Val-Leu-Agmatine; configuration not given here)
Ki (Papain): 94 nM | Ki (Cath K): 13 nM | Ki (Cath B): 1000 nM | Osteoclast formation (100% = M-CSF + RANKL) ([1]; BMM #27 + #29 + #30 + #34): 2%

CC(C)C[C@H](NC(=O)[C@@H](NC(=O)[C@H](Br)Cc1ccccc1)C(C)C)C(=O)NCCCCNC(=N)N [A-16, BrPpr-Val-Leu-Agm]
Ki (Papain): 340 nM | Cath K Ki (Cath K): inactive | Cath B Ki (Cath B): inactive | Osteoclast formation (100% = M-CSF + RANKL) ([1]; BMM #27 + #29 + #30 + #34): 16%

CC(C)CC(NC(=O)C(CCCNC(=N)N)NC(=O)OCc1ccccc1)C(=O)NC(CNC(=O)/C=C/c1ccccc1)C(C)C (stereo not drawn) [A-20, Z-Arg-Leu-NH—CH(iPr)—CH2—NH←Cin]
Papain Ki (Papain): Inactive | Osteoclast formation (100% = M-CSF + RANKL) ([1]; BMM #27 + #29 + #30 + #34): 0%

CC(C)CC(NC(=O)C(NC(=O)/C=C/S(=O)(=O)Cc1ccccc1)C(C)C)C(=O)NCCCCNC(=N)N (stereo not drawn) [A-25, Bzsa-Val-Leu-Agm]
Papain Ki (Papain): Inactive | Ki (Cath K): 42.2 nM | Ki (Cath B): 8.1 nM | Osteoclast formation (100% = M-CSF + RANKL) ([1]; BMM #27 + #29 + #30 + #34): 1%

CC(C)CC(NC(=O)C(NC(=O)/C=C/C(=O)c1ccccc1)C(C)C)C(=O)NCCCCNC(=N)N (stereo not drawn) [A-33, Bzac-Val-Leu-Agm]
Ki (Papain): 46 nM | Ki (Cath K): 24 nM | Ki (Cath B): 2 nM | Osteoclast formation (100% = M-CSF + RANKL) ([1]; BMM #27 + #29 + #30 + #34): 0%

COC(=O)C1OC1C(=O)NC(C(=O)NC(CC(C)C)C(=O)NCCCCNC(=N)N)C(C)C (stereo not drawn) [A-42, MeO-Eps-Val-Leu-Agm]
Ki (Papain): 161 nM | Cath K Ki (Cath K): inactive | Ki (Cath B): 14 nM | Osteoclast formation (100% = M-CSF + RANKL) ([1]; BMM #27 + #29 + #30 + #34): 0%

CC(C)CC(NC(=O)C(CCCNC(=N)N)NC(=O)OCc1ccccc1)C(=O)NC(CNC(=O)/C=C/c1ccncc1)C(C)C (stereo not drawn) [A-49, Z-Arg-Leu-NH—CH(iPr)—CH2—NH←4-Pac]
Osteoclast formation (100% = M-CSF + RANKL) ([1]; BMM #27 + #29 + #30 + #34): 0.2%

CC(C)CC(NC(=O)CCCCNC(=N)N)C(=O)NC(CNC(=O)/C=C/S(=O)(=O)Cc1ccccc1)C(C)C (stereo not drawn) [A-54]
Ki (Papain): 1000 nM | Ki (Cath K): 14 nM | Ki (Cath B): 228 nM | Osteoclast formation (100% = M-CSF + RANKL) ([1]; BMM #27 + #29 + #30 + #34): 1%

CC(C)CC(NC(=O)C(CCCNC(=N)N)NC(=O)OCc1ccccc1)C(=O)NC(C(=O)NC(Cc1ccccc1)C(N)=O)C(C)C (stereo not drawn) [A-59, Ppa-Arg-Leu-Val-Phe-NH2] (Cbz-RLVF-NH2; configuration not given here)
Osteoclast formation (100% = M-CSF + RANKL) ([1]; BMM #27 + #29 + #30 + #34): 0%

CC(C)CC(NC(=O)CCCCNC(=N)N)C(=O)NC(CNC(=O)C(Cc1ccccc1)NC(=O)Cc1cc(=O)oc2cc(O)ccc12)C(C)C [A-107, (2S)-2-[N-(5-guanidinepentanoyl)-L-leucylamino]-1-[N-(7-hydroxy-4-coumarinylacetyl-L-phenylalanylamino)-3-methylbutane]
Osteoclast formation (100% = M-CSF + RANKL) ([1]; BMM #141 and #142): 0%

CC(C)CC(NC(=O)/C=C/c1cccnc1)C(=O)NC(CC(C)C)C(=O)NCCCCNC(=N)N (stereo not drawn) [A-127, 3 Pac-DLeu-Leu-Agm]
Osteoclast formation (100% = M-CSF + RANKL) ([1]; BMM #141 and #142): 16%

CC(C)CC(NC(=O)Cc1cc(=O)oc2cc(O)ccc12)C(=O)NC(CC(C)C)C(=O)NCCCCNC(=N)N [A-128, N-amidino-4-(7-hydroxy-4-coumarinacetyl-D-leucyl-L-leucylamino)butylamine]
Osteoclast formation (100% = M-CSF + RANKL) ([1]; BMM #141 and #142): 4%

C=C1/C(=C\C=C2/CCC[C@]3(C)[C@@H]([C@H](C)CCCC(C)(C)O)CC[C@@H]23)C[C@@H](O)C[C@@H]1O [D3, 1.25(OH)2-vitamin D3, reference compound]
Osteoclast formation in the presence of the substance ([1]; BMM cultures): Osteoclasts were not formed | Osteoclast formation in the presence of the substance (spleen cells): No osteoclasts were formed

CCC(C)C(NC(=O)/C=C/S(=O)(=O)Cc1ccccc1)C(=O)N1CCCC1C(=O)O (stereo not drawn) [M-1, Bzsa-Ile-Pro-OH]
Ki (Papain): 23 nM | Ki (Cath K): 160 nM | Ki (Cath B): 3 nM | Osteoclast formation (100% = M-CSF + RANKL) ([1]; BMM #27 + #29 + #30 + #34): 14%

CCC(C)C(NC(=O)NNC(=O)C(CCCNC(=N)N)NC(=O)C(CC(C)C)NC(=O)C(CCCNC(=N)N)NC(=O)OCc1ccccc1)C(=O)NC(C(=O)OC)C(C)C (stereo not drawn) [Z-RLR, Z-Arg-Leu-Arg-Agly-Ile-Val-OMe] (Cbz-RLR[azaGly]IV-OMe; configuration not given here)
Ki (Papain): 9 nM | Ki (Cath K): 1 nM | Osteoclast formation (100% = M-CSF + RANKL) ([1]; BMM #27 + #29 + #30 + #34): 0%

B1: Cystatin C (protein, UniProt P01034 27-146, looked up)
Cystatin-C: SSPGKPPRLVGGPMDASVEEEGVRRALDFAVGEYNKASNDMYHSRALQVVRARKQIVAGVNYFLDVELGRTTCTKTQPNLDNCPFHDQPHLKRKAFCSFQIYAVPWQGTMTLSKSTCQDA
Osteoclast formation (100% = M-CSF + RANKL) ([1]; BMM #141 and #142): 0%

B2: osteoprotegerin (protein, UniProt O00300 22-401, looked up)
Tumor necrosis factor …: ETFPPKYLHYDEETSHQLLCDKCPPGTYLKQHCTAKWKTVCAPCPDHYYTDSWHTSDECLYCSPVCKELQYVKQECNRTHNRVCECKEGRYLEIEFCLKHRSCPPGFGVVQAGTPERNTVCKRCPDGFFSNETSSKAPCRKHTNCSVFGLLLTQKGNATHDNICSGNSESTQKCGIDVTLCEEAFFRFAVPTKFTPNWLSVLVDNLPGTKVNAESVERIKRQHSSQEQTFQLLKLWKHQNKDQDIVKKIIQDIDLCENSVQRHIGHANLTFEQLRSLMESLPGKKVGAEDIEKTIKACKPSDQILKLLSLWRIKNGDQDTLKGLMHALKHSKTYHFPKTVTQSLKKTIRFLHSFTMYKLYQKLFLEMIGNQVQSVKISCL
notes: osteoprotegerin (OPG), abolishes M-CSF/RANKL-stimulated osteoclast formation
Effect on osteoclast formation caused by M-CSF and RANKL ([1]; BMM cultures, M-CSF and RANKL): abolished | Effect on stimulation of osteoclast formation caused by M-CSF and RANKL (spleen cells; M-CSF and RANKL): abolished

B3: PTH (protein, UniProt P01270 32-115, looked up)
Parathyroid hormone: SVSEIQLMHNLGKHLNSMERVEWLRKKLQDVHNFVALGAPLAPRDAGSQRPRKKEDNVLVESHEKSLGEADKADVNVLTKAKSQ
modifications: Parathyroid hormone
notes: PTH, used to show the lack of stromal cells in the cultures
Osteoclast formation in the presence of the substance ([1]; BMM cultures): Osteoclasts were not formed | Osteoclast formation in the presence of the substance (spleen cells): No osteoclasts were formed
